Data from patent US9833497B2, “Human originated EGF domain proteins and use of the same” (CHENGDU SOURCEBIO LIMITED-LIABILITY COMPANY, priority 2013, dated 2017).

Tests used:
Type in all cases: cell-based
[1] = test system: E. coli DH5α; assay: Antibacterial activity: MIC and growth curve against E. coli DH5α in 96-well plate; settings: minimal inhibitory concentration against E. coli DH5α; 96-well plate, 5×10^5 CFU/mL, 37° C., judged after 8 h
Outline: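 MIC taken as lowest protein level with no bacterial growth, tracked by A600 every 30 min during 37 °C, 175 rpm culture. Two-fold protein series 50-12.5 μg/mL final, triplicate wells, against 5×10^5 CFU/mL of LB-washed mid-log cells.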

[2] = test system: E. coli BL21; assay: MIC against Gram-negative bacteria: E. coli BL21; settings: 5×10^5 CFU/mL
Outline: (§1)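 Broth microdilution, LB medium, final inoculum 5×10^5 CFU/mL from McFarland 0.5 cultures. Recombinant human EGF domain proteins tested in two-fold steps, n=3. MIC: lowest concentration, no growth.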

[3] = test system: Pseudomonas aeruginosa; assay: MIC against Gram-negative bacteria: Pseudomonas aeruginosa; settings: 5×10^5 CFU/mL
Outline: as §1

[4] = test system: Klebsiella pneumonia; assay: MIC against Gram-negative bacteria: Klebsiella pneumonia; settings: 5×10^5 CFU/mL
Outline: as §1

[5] = test system: Enterobacter cloacae; assay: MIC against Gram-negative bacteria: Enterobacter cloacae; settings: 5×10^5 CFU/mL
Outline: as §1

[6] = test system: Aeromonas hydrophila; assay: MIC against Gram-negative bacteria: Aeromonas hydrophila; settings: 5×10^5 CFU/mL
Outline: as §1

[7] = test system: Citrobacter diversus; assay: MIC against Gram-negative bacteria: Citrobacter diversus; settings: 5×10^5 CFU/mL
Outline: as §1

[8] = test system: Moraxella catarrhalis; assay: MIC against Gram-negative bacteria: Moraxella catarrhalis; settings: 5×10^5 CFU/mL
Outline: as §1

[9] = test system: Proteus mirabilis; assay: MIC against Gram-negative bacteria: Proteus mirabilis; settings: 5×10^5 CFU/mL
Outline: as §1

[10] = test system: Proteus vulgaris; assay: MIC against Gram-negative bacteria: Proteus vulgaris; settings: 5×10^5 CFU/mL
Outline: as §1

[11] = test system: Serratia marcescens; assay: MIC against Gram-negative bacteria: Serratia marcescens; settings: 5×10^5 CFU/mL
Outline: as §1

[12] = E. coli BL21, 10 h cultivation at 37° C.
[13] = Pseudomonas aeruginosa, 10 h cultivation at 37° C.
[14] = Klebsiella pneumonia, 10 h cultivation at 37° C.
[15] = Enterobacter cloacae, 10 h cultivation at 37° C.
[16] = Aeromonas hydrophila, 10 h cultivation at 37° C.
[17] = Citrobacter diversus, 10 h cultivation at 37° C.
[18] = Moraxella catarrhalis, 10 h cultivation at 37° C.
[19] = Proteus mirabilis, 10 h cultivation at 37° C.
[20] = Proteus vulgaris, 10 h cultivation at 37° C.
[21] = Serratia marcescens, 10 h cultivation at 37° C.
[22] = E. coli BL21, 96-well plate, 37° C., 10 h
[23] = Pseudomonas aeruginosa, 96-well plate, 37° C., 10 h
[24] = Klebsiella pneumonia, 96-well plate, 37° C., 10 h
[25] = Enterobacter cloacae, 96-well plate, 37° C., 10 h
[26] = Aeromonas hydrophila, 96-well plate, 37° C., 10 h
[27] = Citrobacter diversus, 96-well plate, 37° C., 10 h
[28] = Moraxella catarrhalis, 96-well plate, 37° C., 10 h
[29] = Proteus mirabilis, 96-well plate, 37° C., 10 h
[30] = Proteus vulgaris, 96-well plate, 37° C., 10 h
[31] = Serratia marcescens, 96-well plate, 37° C., 10 h
[32] = 10 h cultivation at 37° C., two-fold serial dilution

## PRT1380 (SQRSCPRGCSQRGRCEGGRCVCDPGYTGDDC; listed as Homo sapiens)
[1]
  MIC: 25 µg/mL
[2]; [12]
  MIC against E. coli BL21: 50 µg/mL
[3]; [13]
  MIC against P. aeruginosa: 12.5 µg/mL
[4]; [14]
  MIC against K. pneumonia: 50 µg/mL
[5]; [15]
  MIC against E. cloacae: 12.5 µg/mL
[6]; [16]
  MIC against A. hydrophila: 50 µg/mL
[7]; [17]
  MIC against C. diversus: 12.5 µg/mL
[8]; [18]
  MIC against M. catarrhalis: 50 µg/mL
[9]; [19]
  MIC against P. mirabilis: 50 µg/mL
[10]; [20]
  MIC against P. vulgaris: 50 µg/mL
[11]; [21]
  MIC against S. marcescens: 50 µg/mL

## PRT590 (CDCNILGSRRDMPCDEESGRCLCLPNVVGPKCDQCAPYHWKLASGQGCEP; listed as Homo sapiens)
[1]
  MIC: 50 µg/mL
[2]; 96-well plate, 37° C., 10 h
  MIC against E. coli BL21: 25 µg/mL
[3]; 96-well plate, 37° C., 10 h
  MIC against P. aeruginosa: 12.5 µg/mL
[4]; 96-well plate, 37° C., 10 h
  MIC against K. pneumonia: 25 µg/mL
[5]; 96-well plate, 37° C., 10 h
  MIC against E. cloacae: 50 µg/mL
[6]; 96-well plate, 37° C., 10 h
  MIC against A. hydrophila: 25 µg/mL
[7]; 96-well plate, 37° C., 10 h
  MIC against C. diversus: 12.5 µg/mL
[8]; 96-well plate, 37° C., 10 h
  MIC against M. catarrhalis: 25 µg/mL
[9]; 96-well plate, 37° C., 10 h
  MIC against P. mirabilis: 50 µg/mL
[10]; 96-well plate, 37° C., 10 h
  MIC against P. vulgaris: 25 µg/mL
[11]; 96-well plate, 37° C., 10 h
  MIC against S. marcescens: 12.5 µg/mL

## PRT85 (KLHFCDSGPCKNSGFCSERWGSFSCDCPVGFGGKDCQ; listed as Homo sapiens)
[1]
  MIC: 12.5 µg/mL
[2]; [22]
  MIC (μg/mL) E. coli BL21: 12.5 µg/mL
[3]; [23]
  MIC (μg/mL) P. aeruginosa: 12.5 µg/mL
[4]; [24]
  MIC (μg/mL) K. pneumonia: 12.5 µg/mL
[5]; [25]
  MIC (μg/mL) E. cloacae: 25 µg/mL
[6]; [26]
  MIC (μg/mL) A. hydrophila: 12.5 µg/mL
[7]; [27]
  MIC (μg/mL) C. diversus: 25 µg/mL
[8]; [28]
  MIC (μg/mL) M. catarrhalis: 50 µg/mL
[9]; [29]
  MIC (μg/mL) P. mirabilis: 50 µg/mL
[10]; [30]
  MIC (μg/mL) P. vulgaris: 12.5 µg/mL
[11]; [31]
  MIC (μg/mL) S. marcescens: 50 µg/mL

## PRT1311 (LLDPCSKNNGGCSPYATCKSTGDGQRTCTCDTAHTVGDGLTCR; listed as Homo sapiens)
[1]
  MIC: 50 µg/mL
[2]; [22]
  MIC against E. coli BL21: 25 µg/mL
[3]; [23]
  MIC against P. aeruginosa: 12.5 µg/mL
[4]; [24]
  MIC against K. pneumonia: 25 µg/mL
[5]; [25]
  MIC against E. cloacae: 50 µg/mL
[6]; [26]
  MIC against A. hydrophila: 12.5 µg/mL
[7]; [27]
  MIC against C. diversus: 50 µg/mL
[8]; [28]
  MIC against M. catarrhalis: 25 µg/mL
[9]; [29]
  MIC against P. mirabilis: 12.5 µg/mL
[10]; [30]
  MIC against P. vulgaris: 25 µg/mL
[11]; [31]
  MIC against S. marcescens: 25 µg/mL

## PRT1168 (NINDCSQNPCHNGGTCRDLVNDFYCDCKNGWKGKTCH; listed as Homo sapiens)
[1]
  MIC: 25 µg/mL
[2]; [32]
  MIC E. coli BL21: 12.5 µg/mL
[3]; [32]
  MIC P. aeruginosa: 25 µg/mL
[4]; [32]
  MIC K. pneumonia: 50 µg/mL
[5]; [32]
  MIC E. cloacae: 12.5 µg/mL
[6]; [32]
  MIC A. hydrophila: 50 µg/mL
[7]; [32]
  MIC C. diversus: 12.5 µg/mL
[8]; [32]
  MIC M. catarrhalis: 50 µg/mL
[9]; [32]
  MIC P. mirabilis: 12.5 µg/mL
[10]; [32]
  MIC P. vulgaris: 50 µg/mL
[11]; [32]
  MIC S. marcescens: 12.5 µg/mL

## PRT603 (CHCHPQGSKDTVCDQVTGQCPCHGEVSGRRCDRCLAGYFGFPSCHP; listed as Homo sapiens)
[1]
  MIC: 25 µg/mL
[2]; 96-well plate, 37° C., 10 h
  MIC E. coli BL21: 50 µg/mL
[3]; 96-well plate, 37° C., 10 h
  MIC P. aeruginosa: 25 µg/mL
[4]; 96-well plate, 37° C., 10 h
  MIC K. pneumonia: 12.5 µg/mL
[5]; 96-well plate, 37° C., 10 h
  MIC E. cloacae: 25 µg/mL
[6]; 96-well plate, 37° C., 10 h
  MIC A. hydrophila: 50 µg/mL
[7]; 96-well plate, 37° C., 10 h
  MIC C. diversus: 12.5 µg/mL
[8]; 96-well plate, 37° C., 10 h
  MIC M. catarrhalis: 50 µg/mL
[9]; 96-well plate, 37° C., 10 h
  MIC P. mirabilis: 12.5 µg/mL
[10]; 96-well plate, 37° C., 10 h
  MIC P. vulgaris: 50 µg/mL
[11]; 96-well plate, 37° C., 10 h
  MIC S. marcescens: 12.5 µg/mL

## PRT1395 (DCPRNCHGNGECVSGVCHCFPGFLGADCA; listed as Homo sapiens)
[1]
  MIC: 12.5 µg/mL
[2]; [12]
  MIC against E. coli BL21: 25 µg/mL
[3]; [13]
  MIC against P. aeruginosa: 12.5 µg/mL
[4]; [14]
  MIC against K. pneumonia: 25 µg/mL
[5]; [15]
  MIC against E. cloacae: 12.5 µg/mL
[6]; [16]
  MIC against A. hydrophila: 100 µg/mL
[7]; [17]
  MIC against C. diversus: 12.5 µg/mL
[8]; [18]
  MIC against M. catarrhalis: 12.5 µg/mL
[9]; [19]
  MIC against P. mirabilis: 12.5 µg/mL
[10]; [20]
  MIC against P. vulgaris: 12.5 µg/mL
[11]; [21]
  MIC against S. marcescens: 25 µg/mL
